In patent US20260109715A1, “IMIDAZOPYRIDINE DERIVATIVES WITH BICYCLIC STRUCTURE” (PUBLIC UNIVERSITY CORPORATION YOKOHAMA CITY UNIVERSITY, priority 2022, published 2026):
Where two headings read alike, the source gives them in different places.

Legend:
[1] = tested on: Snhg1 transcript in tumor tissues of mice subcutaneously implanted with EMT6 murine breast cancer cell line; experiment: Evaluation of NMD inhibitory activity in vivo (Snhg1 transcript in EMT6 tumor tissue after oral administration); conditions: 6 hours after administration, BALB/c mice
Description: The NMD inhibitory activity of a compound of the present invention or a pharmaceutically acceptable salt thereof in vivo can be measured, for example, by the method described below. Using mice subcutaneously implanted with EMT6 murine breast cancer cell line, tumor tissues 6 hours after oral administration of a test substance are excised, and the increase in Snhg1 transcript is quantified as an indicator of NMD inhibition in the tumor, in the same manner as in the in vitro method.
In this test, NMD inhibitory activity in tumor tissues was evaluated when a test substance was orally administered to mice subcutaneously implanted with EMT6 murine breast cancer cell line. As an indicator of NMD inhibitory activity, the increase in the transcript of Snhg1, an NMD target gene, was quantified. First, BALB/c mice were subcutaneously implanted with EMT6 cells (ATCC), and engraftment was confirmed 7 days later. Six hours after administration of the test substance, mice were euthanized, and the collected tumor tissues were cryopreserved. RNA was extracted from the tumor tissues using the illustra RNAspin Mini RNA Isolation kit (GE Healthcare Life Sciences). After synthesizing cDNA using the High-Capacity cDNA Reverse Transcription Kits (Applied Biosystems, 4368813), the cDNA was mixed with PrimeTime Gene Expression Master Mix (Integrated DNA Technologies) and various probes, and gene expression was quantified by QuantStudio 6 Flex (Thermo Fisher Scientific Inc.). For the probe for the Snhg1 gene, which is an NMD target, Mm.PT.58.44039547 (FAM) (Integrated DNA Technologies) was used, and for the probe for the Gapdh gene, which is an endogenous control, Mm99999915_g2 (VIC-PL) (Applied Biosystems) was used. The relative quantification of Snhg1 transcripts in each sample was calculated by the ΔΔCT method using Gapdh as an endogenous control, and the expression level of Snhg1 in each test substance administration group was calculated by setting the expression level of the Vehicle group (0.5% methylcellulose administration group) to 1.

human SMG1 enzyme = human SMG1 enzyme (Homo sapiens, UniProt Q96Q15); experiment: Measurement of SMG1 kinase activity (ADP-Glo Kinase Assay); format: biochemical; conditions: purified human SMG1 enzyme 5 nM, Upf1 peptide substrate, ATP 4 μM; qAC50 synonymous with IC50; read-out: Test Example 1 ADP-Glo IC50
Summary of the method: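 ADP-Glo luminescence readout of ADP made by 5 nM human SMG1 acting on 8 μg/mL Upf1 peptide with 4 μM ATP for 60 min at room temperature, after a 15 min enzyme–compound preincubation (1% DMSO; pH 7.5 HEPES, MnCl2). Activity scaled between DMSO and no-enzyme wells; IC50 by four-parameter logistic regression.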

[2] = tested on: Snhg1 transcript (NMD target gene) in EMT6 murine breast cancer cell line; experiment: Measurement of NMD inhibitory activity in cells (increase in Snhg1 transcript, real-time PCR); set-up: species or system mouse; conditions: 6 hours treatment, concentration giving 1/2 of maximum Snhg1 fold change of positive control, read-out: Test Example 2 Cell-based Snhg1 EC50
Summary of the method: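 EMT6 cells treated with serially diluted compound (2% DMSO final) for 6 h; Snhg1 transcript quantified by real-time PCR (ΔΔCT, Tbp endogenous control, untreated wells set to 1). EC50 taken as concentration giving half the maximum fold change of a known NMD inhibitor positive control.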

Chain of human SMG1 enzyme (Q96Q15 whole entry): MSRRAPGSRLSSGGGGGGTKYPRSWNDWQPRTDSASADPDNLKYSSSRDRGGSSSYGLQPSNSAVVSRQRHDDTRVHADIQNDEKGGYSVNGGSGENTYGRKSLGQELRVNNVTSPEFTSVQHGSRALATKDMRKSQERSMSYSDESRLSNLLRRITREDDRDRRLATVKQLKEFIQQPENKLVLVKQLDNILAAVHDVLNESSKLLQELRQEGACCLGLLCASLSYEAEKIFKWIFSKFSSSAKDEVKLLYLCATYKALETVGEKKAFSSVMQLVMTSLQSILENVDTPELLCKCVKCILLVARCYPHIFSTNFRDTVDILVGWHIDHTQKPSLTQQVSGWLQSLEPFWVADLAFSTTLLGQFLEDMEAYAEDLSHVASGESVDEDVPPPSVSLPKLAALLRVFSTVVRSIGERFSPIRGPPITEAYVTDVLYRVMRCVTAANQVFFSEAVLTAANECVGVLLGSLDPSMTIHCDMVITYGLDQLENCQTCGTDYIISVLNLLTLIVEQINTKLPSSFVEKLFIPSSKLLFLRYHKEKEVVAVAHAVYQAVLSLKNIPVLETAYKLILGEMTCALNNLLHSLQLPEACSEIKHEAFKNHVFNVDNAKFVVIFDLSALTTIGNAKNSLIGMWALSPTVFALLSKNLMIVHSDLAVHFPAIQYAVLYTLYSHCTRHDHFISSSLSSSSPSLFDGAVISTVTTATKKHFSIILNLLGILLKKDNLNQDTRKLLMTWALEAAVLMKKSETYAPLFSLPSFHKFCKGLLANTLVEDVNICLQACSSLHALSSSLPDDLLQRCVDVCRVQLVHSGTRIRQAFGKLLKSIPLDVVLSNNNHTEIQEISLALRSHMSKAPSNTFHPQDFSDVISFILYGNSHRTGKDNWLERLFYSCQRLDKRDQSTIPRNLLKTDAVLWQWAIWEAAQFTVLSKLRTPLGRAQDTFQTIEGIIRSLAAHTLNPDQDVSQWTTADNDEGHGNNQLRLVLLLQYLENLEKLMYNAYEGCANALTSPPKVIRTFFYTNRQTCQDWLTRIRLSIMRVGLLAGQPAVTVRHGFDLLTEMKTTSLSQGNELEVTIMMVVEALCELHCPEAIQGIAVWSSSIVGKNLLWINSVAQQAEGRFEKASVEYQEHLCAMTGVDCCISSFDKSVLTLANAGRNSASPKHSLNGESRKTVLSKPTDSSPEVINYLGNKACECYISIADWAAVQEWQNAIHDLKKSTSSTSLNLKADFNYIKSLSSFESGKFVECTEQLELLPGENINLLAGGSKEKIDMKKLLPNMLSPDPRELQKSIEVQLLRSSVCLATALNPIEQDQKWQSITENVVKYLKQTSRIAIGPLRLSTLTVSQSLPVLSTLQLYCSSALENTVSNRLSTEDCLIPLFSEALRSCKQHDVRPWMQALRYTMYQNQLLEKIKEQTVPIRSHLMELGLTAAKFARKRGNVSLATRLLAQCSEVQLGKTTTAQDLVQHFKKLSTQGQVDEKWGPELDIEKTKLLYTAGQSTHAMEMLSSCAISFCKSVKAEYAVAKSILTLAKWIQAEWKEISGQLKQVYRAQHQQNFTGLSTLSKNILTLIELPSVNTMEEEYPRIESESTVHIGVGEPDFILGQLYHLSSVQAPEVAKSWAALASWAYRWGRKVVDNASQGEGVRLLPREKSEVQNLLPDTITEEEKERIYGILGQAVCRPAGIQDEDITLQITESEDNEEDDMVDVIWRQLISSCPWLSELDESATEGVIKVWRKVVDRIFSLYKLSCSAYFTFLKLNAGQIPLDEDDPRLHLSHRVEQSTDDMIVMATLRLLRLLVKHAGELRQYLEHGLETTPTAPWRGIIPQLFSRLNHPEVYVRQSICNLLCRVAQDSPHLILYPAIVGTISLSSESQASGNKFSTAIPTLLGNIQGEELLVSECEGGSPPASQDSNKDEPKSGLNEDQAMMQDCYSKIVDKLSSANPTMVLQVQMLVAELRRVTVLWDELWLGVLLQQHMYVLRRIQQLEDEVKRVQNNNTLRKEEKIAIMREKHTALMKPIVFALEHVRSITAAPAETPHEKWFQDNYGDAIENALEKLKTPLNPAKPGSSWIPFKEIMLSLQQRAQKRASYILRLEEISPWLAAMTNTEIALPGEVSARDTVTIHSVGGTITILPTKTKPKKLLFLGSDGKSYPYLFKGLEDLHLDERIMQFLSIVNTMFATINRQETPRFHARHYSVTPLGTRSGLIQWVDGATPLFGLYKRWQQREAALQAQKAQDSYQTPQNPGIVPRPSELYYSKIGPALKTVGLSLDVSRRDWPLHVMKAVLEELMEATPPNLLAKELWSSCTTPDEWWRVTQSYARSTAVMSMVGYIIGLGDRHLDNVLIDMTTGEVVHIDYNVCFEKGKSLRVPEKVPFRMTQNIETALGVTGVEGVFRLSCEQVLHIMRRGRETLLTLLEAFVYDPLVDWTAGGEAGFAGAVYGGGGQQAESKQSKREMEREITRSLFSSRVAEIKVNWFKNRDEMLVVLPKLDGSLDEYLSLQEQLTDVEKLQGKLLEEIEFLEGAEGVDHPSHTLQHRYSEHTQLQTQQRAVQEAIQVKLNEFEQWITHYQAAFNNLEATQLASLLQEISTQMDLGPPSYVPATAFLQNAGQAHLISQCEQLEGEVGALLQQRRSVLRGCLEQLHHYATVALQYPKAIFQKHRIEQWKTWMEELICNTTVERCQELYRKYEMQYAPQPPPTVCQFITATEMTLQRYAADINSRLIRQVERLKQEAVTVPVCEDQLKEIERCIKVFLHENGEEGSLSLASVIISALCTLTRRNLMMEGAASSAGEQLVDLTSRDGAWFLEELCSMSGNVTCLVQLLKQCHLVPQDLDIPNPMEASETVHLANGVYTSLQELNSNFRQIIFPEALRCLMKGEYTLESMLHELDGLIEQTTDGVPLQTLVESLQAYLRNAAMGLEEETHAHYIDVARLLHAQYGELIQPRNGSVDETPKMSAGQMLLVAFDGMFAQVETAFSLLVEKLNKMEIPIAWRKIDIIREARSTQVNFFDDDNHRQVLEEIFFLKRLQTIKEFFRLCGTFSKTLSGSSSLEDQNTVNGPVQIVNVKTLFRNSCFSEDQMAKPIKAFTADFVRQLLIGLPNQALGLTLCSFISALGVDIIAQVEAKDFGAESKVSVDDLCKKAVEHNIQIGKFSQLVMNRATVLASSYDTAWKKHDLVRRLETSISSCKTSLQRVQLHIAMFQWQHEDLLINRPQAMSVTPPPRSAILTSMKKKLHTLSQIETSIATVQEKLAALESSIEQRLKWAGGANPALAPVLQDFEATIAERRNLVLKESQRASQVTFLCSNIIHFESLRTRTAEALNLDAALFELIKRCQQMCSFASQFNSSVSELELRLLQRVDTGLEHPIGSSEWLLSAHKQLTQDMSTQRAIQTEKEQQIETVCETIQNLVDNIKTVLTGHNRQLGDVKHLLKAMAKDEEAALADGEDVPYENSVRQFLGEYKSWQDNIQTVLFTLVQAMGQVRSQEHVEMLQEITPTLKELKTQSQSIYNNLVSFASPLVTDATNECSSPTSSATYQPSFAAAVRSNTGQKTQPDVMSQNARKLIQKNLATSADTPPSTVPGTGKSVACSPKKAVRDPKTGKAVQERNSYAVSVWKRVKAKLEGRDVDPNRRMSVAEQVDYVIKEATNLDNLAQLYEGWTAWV

IC50 (human SMG1 enzyme) [nM] | EC50 ([2]; Mus musculus) [nM] | Molecule | Snhg1 fold change ([1]; 10 mg/kg oral) | Snhg1 fold change ([1]; 30 mg/kg oral) | EC50 [2] [nM] | Snhg1 fold change ([1]; 25 mg/kg oral) | Snhg1 fold change ([1]; 100 mg/kg oral)
3.5 | 50 | CS(=O)(=O)O.Cc1nc(Cl)cc2[nH]c(-c3cc4c(-c5ccccc5OC(F)F)nccc4[nH]c3=O)nc12 [Example 132, 3-(6-chloro-4-methyl-1H-imidazo[4,5-c]pyridin-2-yl)-5-[2-(difluoromethoxy)phenyl]-1,6-naphthyridin-2(1H)-one methanesulfonate] | 7.4 |  |  |  | 
1.9 | 20 | CCc1nc(Cl)cc2[nH]c(-c3cc4c(-c5c(C6CC6)nn(C(F)F)c5C)nccc4[nH]c3=O)nc12 [Example 92, 3-(6-chloro-4-ethyl-1H-imidazo[4,5-c]pyridin-2-yl)-5-[3-cyclopropyl-1-(difluoromethyl)-5-methyl-1H-pyrazol-4-yl]-1,6-naphthyridin-2(1H)-one] | 6.5 |  |  |  | 
0.56 | 15 | CCc1nc(Cl)cc2[nH]c(-c3cc4c(-c5cnc(OC)nc5OC)nccc4[nH]c3=O)nc12 [Example 70, 3-(6-chloro-4-ethyl-1H-imidazo[4,5-c]pyridin-2-yl)-5-(2,4-dimethoxypyrimidin-5-yl)-1,6-naphthyridin-2(1H)-one] | 3.6 |  |  |  | 
1.1 | 4 | CS(=O)(=O)O.Cc1c(-c2nccc3[nH]c(=O)c(-c4nc5c(N[C@H](C)C(F)(F)F)nc(Cl)cc5[nH]4)cc23)cnn1C [Example 152, 3-(6-chloro-4-{[(2R)-1,1,1-trifluoropropan-2-yl]amino}-1H-imidazo[4,5-c]pyridin-2-yl)-5-(1,5-dimethyl-1H-pyrazol-4-yl)-1,6-naphthyridin-2(1H)-one methanesulfonate] | 7.9 |  |  |  | 
1.8 | 34 | Cc1nc(Cl)cc2[nH]c(-c3cc4c(-c5c(C6CC6)nn(C(F)F)c5C)nccc4[nH]c3=O)nc12 [Example 91, 3-(6-chloro-4-methyl-1H-imidazo[4,5-c]pyridin-2-yl)-5-[3-cyclopropyl-1-(difluoromethyl)-5-methyl-1H-pyrazol-4-yl]-1,6-naphthyridin-2(1H)-one] | 5.9 |  |  |  | 
1.2 | 3.1 | CCc1nc(Cl)cc2[nH]c(-c3cc4c(-c5cnc(C(F)(F)F)cc5OC)nccc4[nH]c3=O)nc12.CS(=O)(=O)O [Example 145, 3-(6-chloro-4-ethyl-1H-imidazo[4,5-c]pyridin-2-yl)-5-[4-methoxy-6-(trifluoromethyl)pyridin-3-yl]-1,6-naphthyridin-2(1H)-one methanesulfonate] | 8.9 |  |  |  | 
0.62 | 10 | CCc1nc(Cl)cc2[nH]c(-c3cc4c(-c5ccc(C)nc5OC)nccc4[nH]c3=O)nc12 [Example 68, 3-(6-chloro-4-ethyl-1H-imidazo[4,5-c]pyridin-2-yl)-5-(2-methoxy-6-methylpyridin-3-yl)-1,6-naphthyridin-2(1H)-one] |  | 8.3 |  |  | 
4.5 | 56 | CC1(c2nccc3[nH]c(=O)c(-c4nc5c(C6CCOCC6)nc(Cl)cc5[nH]4)cc23)CC1 [Example 128, 3-[6-chloro-4-(tetrahydro-2H-pyran-4-yl)-1H-imidazo[4,5,c]pyridin-2-yl]-5-(1-methylcyclopropyl)-1,6-naphthyridin-2(1H)-one methanesulfonate] |  | 6.2 |  |  | 
0.81 | 4.5 | COc1ncc(-c2nccc3[nH]c(=O)c(-c4nc5c(NCC(F)F)nc(Cl)cc5[nH]4)cc23)c(OC)n1 [Example 72, 3-(6-chloro-4-[(2,2-difluoroethyl)amino]-1H-imidazo[4,5-c]pyridin-2-yl)-5-(2,4-dimethoxypyrimidin-5-yl)-1,6-naphthyridin-2(1H)-one] |  | 4.3 |  |  | 
0.73 | 12 | CCc1nc(Cl)cc2[nH]c(-c3cc4c(-c5c(C)nn(C(F)F)c5C)nccc4[nH]c3=O)nc12.CS(=O)(=O)O [Example 148, 3-(6-chloro-4-ethyl-1H-imidazo[4,5-c]pyridin-2-yl)-5-[1-(difluoromethyl)-3,5-dimethyl-1H-pyrazol-4-yl]-1,6-naphthyridin-2(1H)-one methanesulfonate] | 5.8 |  |  |  | 
1.4 | 40 | COc1cccc(F)c1-c1nccc2[nH]c(=O)c(-c3nc4cnc(Cl)cc4[nH]3)cc12 [Example 35, 3-(6-chloro-1H-imidazo[4,5-c]pyridin-2-y1)-5-(2-fluoro-6-methoxyphenyl)-1,6-naphthyridin-2(1H)-one] | 4.6 |  |  |  | 
0.67 | 0.61 | CS(=O)(=O)O.Cc1nn(C(F)F)c(C)c1-c1nccc2[nH]c(=O)c(-c3nc4c(N5CC[C@H]5C)nc(Cl)cc4[nH]3)cc12 [Example 149, 3-{6-chloro-4-[(2R)-2-methylazetidin-1-yl]-1H-imidazo[4,5-c]pyridin-2-yl}-5-[1-(difluoromethyl)-3,5-dimethyl-1H-pyrazol-4-yl]-1,6-naphthyridin-2(1H)-one methanesulfonate] | 12 |  |  |  | 
0.36 | 9.4 | [2H]C([2H])([2H])Oc1ccccc1-c1nccc2[nH]c(=O)c(-c3nc4c(CC)nc(Cl)cc4[nH]3)cc12 [Example 37, 3-(6-chloro-4-ethyl-1H-imidazo[4,5-c]pyridin-2-yl)-5-{2-[(^2H3)methyloxy]phenyl}-1,6-naphthyridin-2(1H)-one] | 8.4 |  |  |  | 
2.2 | 25 | COc1ccccc1-c1nccc2[nH]c(=O)c(-c3nc4cnc(Cl)cc4[nH]3)cc12 [Example 34, 3-(6-chloro-1H-imidazo[4,5-c]pyridin-2-y1)-5-(2-methoxyphenyl)-1,6-naphthyridin-2(1H)-one] |  |  |  | 6.2 | 
2.4 | 111 | CC1(C)CC(O)(c2nc(Cl)cc3[nH]c(-c4cc5cnccc5[nH]c4=O)nc23)CCO1 (stereo not drawn) [Example 19, 3-[6-chloro-4-(4-hydroxy-2,2-dimethyltetrahydro-2H-pyran-4-yl)-1H-imidazo[4,5-c]pyridin-2-yl]-1,6-naphthyridin-2(1H)-one] |  |  |  |  | 7.5
0.63 | 3.7 | COc1ncccc1-c1nccc2[nH]c(=O)c(-c3nc4c(NCC(F)(F)F)nc(Cl)cc4[nH]3)cc12.CS(=O)(=O)O [Example 142, 3-{6-chloro-4-[(2,2,2-trifluoroethyl)amino]-1H-imidazo[4,5-c]pyridin-2-yl}-5-(2-methoxypyridin-3-yl)-1,6-naphthyridin-2(1H)-one methanesulfonate] | 11 |  |  |  | 
0.36 | 1.8 | CCc1nc(Cl)cc2[nH]c(-c3cc4c(-c5cnc(C6CC6)cc5OC)nccc4[nH]c3=O)nc12.CS(=O)(=O)O [Example 138, 3-(6-chloro-4-ethyl-1H-imidazo[4,5-c]pyridin-2-yl)-5-(6-cyclopropyl-4-methoxypyridin-3-yl)-1,6-naphthyridin-2(1H)-one methanesulfonate] | 12 |  |  |  | 
2 | 78 | O=c1[nH]c2ccnc(-c3ccccc3Cl)c2cc1-c1nc2cnc(Cl)cc2[nH]1 [Example 28, 3-(6-chloro-1H-imidazo[4,5-c]pyridin-2-y1)-5-(2-chlorophenyl)-1,6-naphthyridin-2(1H)-one] |  |  |  | 8.8 | 

Molecule | IC50 (human SMG1 enzyme) [nM] | EC50 ([2]; Mus musculus) [nM] | Snhg1 fold change ([1]; 10 mg/kg oral) | Snhg1 fold change ([1]; 30 mg/kg oral) | EC50 [2] [nM] | Snhg1 fold change ([1]; 25 mg/kg oral) | Snhg1 fold change ([1]; 100 mg/kg oral)
3-(6-chloro-4-methyl-1H-imidazo[4,5-c]pyridin-2-yl)-5-(2-fluoro-6-methoxyphenyl)-1,6-naphthyridin-2(1H)-one methanesulfonate [Example 130] | 1.6 |  | 9.2 |  | 11 |  | 
